The target of the test is T1, human capsaicin receptor (Homo sapiens, UniProt Q8NER1).
T1 construct: pBK-CMV expression construct encoding the full length human capsaicin receptor; expressed in transfected cells
Put plainly: Calcium mobilization assay, determination of antagonist activity (Example 6). In kind it is cell-based. Particulars: 50% decrease in fluorescence response of cells expressing human capsaicin receptor exposed to capsaicin. The method in brief:
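HEK293 cells stably expressing full-length human capsaicin receptor, Fluo-3 AM loaded, preincubated with compound 0.5–6 h at room temperature in KRH buffer pH 7.4. Challenged with capsaicin at its EC50; FLIPR fluorescence read. IC50 is concentration halving the capsaicin-induced calcium response.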
In general terms: A change in cytosolic calcium serves as a functional read-out for many receptors and channels.

Structures are written as SMILES.

This passage reports IC50 results from US20070043049A1, “Substituted heterocyclic diarylamine analogues” (Neurogen Corporation, priority 2003, published 2007).

T1 sequence (Q8NER1 whole entry): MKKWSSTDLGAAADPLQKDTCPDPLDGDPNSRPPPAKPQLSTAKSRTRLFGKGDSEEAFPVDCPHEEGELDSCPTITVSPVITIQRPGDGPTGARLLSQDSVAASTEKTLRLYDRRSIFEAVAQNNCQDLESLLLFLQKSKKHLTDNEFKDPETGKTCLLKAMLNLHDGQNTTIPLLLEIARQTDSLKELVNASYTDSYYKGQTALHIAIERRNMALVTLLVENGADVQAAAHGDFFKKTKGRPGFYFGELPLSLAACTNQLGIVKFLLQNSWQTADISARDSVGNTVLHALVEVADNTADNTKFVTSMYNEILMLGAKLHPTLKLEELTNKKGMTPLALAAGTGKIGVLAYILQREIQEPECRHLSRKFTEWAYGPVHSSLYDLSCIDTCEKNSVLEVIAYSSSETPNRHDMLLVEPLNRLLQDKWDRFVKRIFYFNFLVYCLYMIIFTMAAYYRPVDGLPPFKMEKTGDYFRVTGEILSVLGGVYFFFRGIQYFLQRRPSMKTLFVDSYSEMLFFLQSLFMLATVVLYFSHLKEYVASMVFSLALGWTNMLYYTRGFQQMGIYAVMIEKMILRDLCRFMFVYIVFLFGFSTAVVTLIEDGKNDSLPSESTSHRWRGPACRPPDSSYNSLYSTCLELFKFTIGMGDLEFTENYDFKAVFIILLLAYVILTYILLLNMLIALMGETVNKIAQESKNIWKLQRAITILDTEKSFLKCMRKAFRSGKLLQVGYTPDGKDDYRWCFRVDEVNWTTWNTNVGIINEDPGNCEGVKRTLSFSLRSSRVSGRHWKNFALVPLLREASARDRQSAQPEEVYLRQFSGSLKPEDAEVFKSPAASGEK

On to `FC(F)(F)c1cccnc1N1CCN(c2nc(Nc3ccccc3)cc(N3CCCCC3)n2)CC1` [Compound 57, Phenyl-{6-piperidin-1-yl-2-[4-(3-trifluoromethyl-pyridin-2-yl)-piperazin-1-yl]-pyrimidin-4-yl}-amine], for which the IC50 was no more than 1 µM.
The value for `Fc1cccc(Nc2nc(N3CCOCC3)nc(N3CCN(c4ncccc4C(F)(F)F)CC3)n2)c1` [Compound 58, (3-Fluoro-phenyl)-{4-morpholin-4-yl-6-[4-(3-trifluoromethyl-pyridin-2-yl)-piperazin-1-yl]-[1,3,5]triazin-2-yl}-amine] was no more than 1 µM; that for `Fc1ccc(Nc2nc(N3CCOCC3)nc(N3CCN(c4ncccc4C(F)(F)F)CC3)n2)cc1` [Compound 59, (4-Fluoro-phenyl)-{4-morpholin-4-yl-6-[4-(3-trifluoromethyl-pyridin-2-yl)-piperazin-1-yl]-[1,3,5]triazin-2-yl}-amine] was no more than 1 µM.
The value for `Fc1cccc(Nc2nc(N3CCOCC3)nc(N3CCN(c4ncccc4Cl)CC3)n2)c1` [Compound 60, {4-[4-(3-Chloro-pyridin-2-yl)-piperazin-1-yl]-6-morpholin-4-yl-[1,3,5]triazin-2-yl}-(3-fluoro-phenyl)-amine] was no more than 1 µM; that for `Fc1ccc(Nc2nc(N3CCOCC3)nc(N3CCN(c4ncccc4Cl)CC3)n2)cc1` [Compound 61, {4-[4-(3-Chloro-pyridin-2-yl)-piperazin-1-yl]-6-morpholin-4-yl-[1,3,5]triazin-2-yl}-(4-fluoro-phenyl)-amine] was no more than 1 µM; that for `Clc1ccc(Nc2nc(N3CCOCC3)nc(N3CCN(c4ncccc4Cl)CC3)n2)cc1` [Compound 62, (4-Chloro-phenyl)-{4-[4-(3-chloro-pyridin-2-yl)-piperazin-1-yl]-6-morpholin-4-yl-[1,3,5]triazin-2-yl}-amine] was no more than 1 µM.
In the case of `FC(F)(F)c1cccnc1N1CCN(c2nc(Nc3ccc(Cl)cc3)nc(N3CCOCC3)n2)CC1` [Compound 63, (4-Chloro-phenyl)-{4-morpholin-4-yl-6-[4-(3-trifluoromethyl-pyridin-2-yl)-piperazin-1-yl]-[1,3,5]triazin-2-yl}-amine] it was no more than 1 µM; in that of `Cc1ccc(Nc2nc(N3CCOCC3)nc(N3CCN(c4ncccc4C(F)(F)F)CC3)n2)cc1` [Compound 64, {4-Morpholin-4-yl-6-[4-(3-trifluoromethyl-pyridin-2-yl)-piperazin-1-yl]-[1,3,5]triazin-2-yl}-p-tolyl-amine], no more than 1 µM; in that of `Cc1ccc(Nc2nc(N3CCOCC3)nc(N3CCN(c4ncccc4Cl)CC3)n2)cc1` [Compound 65, {4-[4-(3-Chloro-pyridin-2-yl)-piperazin-1-yl]-6-morpholin-4-yl-[1,3,5]triazin-2-yl}-p-tolyl-amine], no more than 1 µM.
Take `Clc1cccc(Nc2nc(N3CCOCC3)nc(N3CCN(c4ncccc4Cl)CC3)n2)c1` [Compound 66, (3-Chloro-phenyl)-{4-[4-(3-chloro-pyridin-2-yl)-piperazin-1-yl]-6-morpholin-4-yl-[1,3,5]triazin-2-yl}-amine]: the IC50 is no more than 1 µM.
In the case of `FC(F)(F)c1cccnc1N1CCN(c2nc(Nc3cccc(Cl)c3)nc(N3CCOCC3)n2)CC1` [Compound 67, (3-Chloro-phenyl)-{4-morpholin-4-yl-6-[4-(3-trifluoromethyl-pyridin-2-yl)-piperazin-1-yl]-[1,3,5]triazin-2-yl}-amine] it was no more than 1 µM.
In the case of `Fc1ccc(Nc2nc(N3CCOCC3)nc(N3CCN(c4ncccc4Cl)CC3)n2)cc1F` [Compound 68, {4-[4-(3-Chloro-pyridin-2-yl)-piperazin-1-yl]-6-morpholin-4-yl-[1,3,5]triazin-2-yl}-(3,4-difluoro-phenyl)-amine] it was no more than 1 µM; in that of `Fc1ccc(Nc2nc(N3CCOCC3)nc(N3CCN(c4ncccc4C(F)(F)F)CC3)n2)cc1F` [Compound 69, (3,4-Difluoro-phenyl)-{4-morpholin-4-yl-6-[4-(3-trifluoromethyl-pyridin-2-yl)-piperazin-1-yl]-[1,3,5]triazin-2-yl}-amine], no more than 1 µM; in that of `Fc1cccc(Nc2nc(N3CCCCC3)nc(N3CCN(c4ncccc4Cl)CC3)n2)c1` [Compound 70, {4-[4-(3-Chloro-pyridin-2-yl)-piperazin-1-yl]-6-piperidin-1-yl-[1,3,5]triazin-2-yl}-(3-fluoro-phenyl)-amine], no more than 1 µM.
The value for `CCN(CC)c1nc(Nc2cccc(F)c2)nc(N2CCN(c3ncccc3Cl)CC2)n1` [Compound 71, 6-[4-(3-Chloro-pyridin-2-yl)-piperazin-1-yl]-N,N-diethyl-N′-(3-fluoro-phenyl)-[1,3,5]triazine-2,4-diamine] was no more than 1 µM; that for `CCN(C)c1nc(Nc2cccc(F)c2)nc(N2CCN(c3ncccc3Cl)CC2)n1` [Compound 72, 6-[4-(3-Chloro-pyridin-2-yl)-piperazin-1-yl]-N-ethyl-N′-(3-fluoro-phenyl)-N-methyl-[1,3,5]triazine-2,4-diamine] was no more than 1 µM; that for `Fc1cccc(Nc2nc(N3CCCC3)nc(N3CCN(c4ncccc4Cl)CC3)n2)c1` [Compound 73, {4-[4-(3-Chloro-pyridin-2-yl)-piperazin-1-yl]-6-pyrrolidin-1-yl-[1,3,5]triazin-2-yl}-(3-fluoro-phenyl)-amine] was no more than 1 µM.
Turning to `CCCN(C)c1nc(Nc2cccc(F)c2)nc(N2CCN(c3ncccc3Cl)CC2)n1` [Compound 74, 6-[4-(3-Chloro-pyridin-2-yl)-piperazin-1-yl]-N-(3-fluoro-phenyl)-N′-methyl-N′-propyl-[1,3,5]triazine-2,4-diamine], the IC50 was no more than 1 µM.
The value for `CCCCN(C)c1nc(Nc2cccc(F)c2)nc(N2CCN(c3ncccc3Cl)CC2)n1` [Compound 75, N-Butyl-6-[4-(3-chloro-pyridin-2-yl)-piperazin-1-yl]-N′-(3-fluoro-phenyl)-N-methyl-[1,3,5]triazine-2,4-diamine] was no more than 1 µM; that for `CN(C)c1nc(Nc2cccc(F)c2)nc(N2CCN(c3ncccc3Cl)CC2)n1` [Compound 76, 6-[4-(3-Chloro-pyridin-2-yl)-piperazin-1-yl]-N-(3-fluoro-phenyl)-N′,N′-dimethyl-[1,3,5]triazine-2,4-diamine] was no more than 1 µM.
The value for `CC1CCCN1c1nc(Nc2cccc(F)c2)nc(N2CCN(c3ncccc3Cl)CC2)n1` (centres unmarked) [Compound 77, [4-[4-(3-Chloro-pyridin-2-yl)-piperazin-1-yl]-6-(2-methyl-pyrrolidin-1-yl)-[1,3,5]triazin-2-yl]-(3-fluoro-phenyl)-amine] was no more than 1 µM; that for `Fc1cccc(Nc2nc(N3CCCCCC3)nc(N3CCN(c4ncccc4Cl)CC3)n2)c1` [Compound 78, {4-Azepan-1-yl-6-[4-(3-chloro-pyridin-2-yl)-piperazin-1-yl]-[1,3,5]triazin-2-yl}-(3-fluoro-phenyl)-amine] was no more than 1 µM; that for `CC(C)N(C)c1nc(Nc2cccc(F)c2)nc(N2CCN(c3ncccc3Cl)CC2)n1` [Compound 79, 6-[4-(3-Chloro-pyridin-2-yl)-piperazin-1-yl]-N-(3-fluoro-phenyl)-N′-isopropyl-N′-methyl-[1,3,5]triazine-2,4-diamine] was no more than 1 µM.
On to `CCN(c1nc(Nc2cccc(F)c2)nc(N2CCN(c3ncccc3Cl)CC2)n1)C(C)C` [Compound 80, 6-[4-(3-Chloro-pyridin-2-yl)-piperazin-1-yl]-N-ethyl-N′-(3-fluoro-phenyl)-N-isopropyl-[1,3,5]triazine-2,4-diamine], for which the IC50 is no more than 1 µM.
The value for `CCCNc1nc(Nc2cccc(F)c2)nc(N2CCN(c3ncccc3Cl)CC2)n1` [Compound 81, 6-[4-(3-Chloro-pyridin-2-yl)-piperazin-1-yl]-N-(3-fluoro-phenyl)-N′-propyl-[1,3,5]triazine-2,4-diamine] was no more than 1 µM; that for `Cc1nc(Nc2ccc(C(F)(F)F)cc2)nc(N2CCN(c3ncccc3Cl)CC2)n1` [Compound 82, {4-[4-(3-Chloro-pyridin-2-yl)-piperazin-1-yl]-6-methyl-[1,3,5]triazin-2-yl}-(4-trifluoromethyl-phenyl)-amine] was no more than 1 µM.
In the case of `Fc1ccc(Nc2nc(N3CCOCC3)cc(N3CCN(c4ncccc4C(F)(F)F)CC3)n2)cc1` [Compound 83, (4-Fluoro-phenyl)-{4-morpholin-4-yl-6-[4-(3-trifluoromethyl-pyridin-2-yl)-piperazin-1-yl]-pyrimidin-2-yl}-amine], the IC50 was no more than 1 µM.
In the case of `FC(F)(F)c1cccnc1N1CCN(c2cc(N3CCOCC3)nc(Nc3cccc(Cl)c3)n2)CC1` [Compound 84, (3-Chloro-phenyl)-{4-morpholin-4-yl-6-[4-(3-trifluoromethyl-pyridin-2-yl)-piperazin-1-yl]-pyrimidin-2-yl}-amine] it was no more than 1 µM; in that of `Cc1ccccc1Nc1nc(N2CCOCC2)cc(N2CCN(c3ncccc3C(F)(F)F)CC2)n1` [Compound 85, {4-Morpholin-4-yl-6-[4-(3-trifluoromethyl-pyridin-2-yl)-piperazin-1-yl]pyrimidin-2-yl}-o-tolyl-amine], no more than 1 µM; in that of `Cc1cccc(Nc2nc(N3CCOCC3)cc(N3CCN(c4ncccc4C(F)(F)F)CC3)n2)c1` [Compound 86, {4-Morpholin-4-yl-6-[4-(3-trifluoromethyl-pyridin-2-yl)-piperazin-1-yl]-pyrimidin-2-yl}-m-tolyl-amine], no more than 1 µM.
In the case of `Cc1ccc(Nc2nc(N3CCOCC3)cc(N3CCN(c4ncccc4C(F)(F)F)CC3)n2)cc1` [Compound 87, {4-Morpholin-4-yl-6-[4-(3-trifluoromethyl-pyridin-2-yl)-piperazin-1-yl]-pyrimidin-2-yl}-p-tolyl-amine] it was no more than 1 µM; in that of `COc1cccc(Nc2nc(N3CCOCC3)cc(N3CCN(c4ncccc4C(F)(F)F)CC3)n2)c1` [Compound 88, (3-Methoxy-phenyl)-{4-morpholin-4-yl-6-[4-(3-trifluoromethyl-pyridin-2-yl)-piperazin-1-yl]-pyrimidin-2-yl}-amine], no more than 1 µM.

In general, IC50 refers to the concentration at which inhibition is half-maximal.
